Measured values taken from patent US20070015733A1, “Aryl Phosphate Derivatives of d4T having Activity Against Resistant HIV Strains” (Parker Hughes Institute, priority 1998, published 2007).
Like-named read-outs stand apart in the source and are kept apart here.

Assays:
HIV-1 (strain: HTLVIIIB) = experiment: microbe, parasite or virus in culture; type: cell-based; details: PBMNC, read-out: PBMNC IC50 [RT]
Description: (§1) Percent inhibition of viral replication was calculated by comparing the p24 and RT activity values from the test substance-treated infected cells with those from untreated infected cells. In parallel, the cytotoxicity of the compounds was examined using a microculture tetrazolium assay (MTA) of cell proliferation, as described.in the Zarling, Enrice, and Uckun articles Supra).
(§2) Cellular Assays of Anti-HIV Activity and Cytotoxicity. […] Percent viral inhibition was calculated by comparing the RT activity values from the test substance-treated infected cells with RT values from untreated infected cells (i.e., virus controls).

[1] = tested on: HIV-1 (HTLVIIIB) in TK-deficient CEM T-cells; experiment: Inhibition of HIV-1 replication in TK-deficient CEM T-cells (p24 / RT activity); type: cell-based; details: TK-deficient CEM T-cells, read-out: CEM IC50 [RT]
Description: as §1, §2

[2] = tested on: NRTI-resistant recombinant HIV-1 isolates; experiment: Documented fold decreased susceptibility of recombinant HIV-1 clones; type: cell-based; details: for mean reduction in susceptibility: mean over 6 recombinant clones; for median reduction in susceptibility: median over 6 recombinant clones
[3] = tested on: NRTI-resistant recombinant HIV-1 isolates; details: cited from earlier work
[4] = tested on: NRTI-resistant recombinant HIV-1 isolates; experiment: p24 assay, multi-NRTI-resistant recombinant HIV-1 clones; type: cell-based
[5] = tested on: NRTI-resistant recombinant HIV-1 isolates; experiment: RT activity assay, multi-NRTI-resistant recombinant HIV-1 clones; type: cell-based
HIV-1 HTLVIIIB = experiment: microbe, parasite or virus in culture; details: Human immunodeficiency virus 1, PBMC
Description: In vitro assays of anti-HIV-1 activity. Normal human peripheral blood mononuclear cells (PBMNC) from HIV-negative donors were cultured 72 hours in RPMI 1640 supplemented with 20% (v/v) heat-inactivated fetal bovine serum (FBS), 3% interleukin-2, 2 mM L-glutamine, 25 mM HEPES, 2 g/L NaHCO3, […], and […] prior to exposure to HIV-1 at a multiplicity of infection (MOI) of 0.1 during a 1 hour adsorption period at 37° C. in a humidified 5% CO2 atmosphere. Subsequently, cells were cultured in 96-well microtiter plates ([…]; 2×10^6 cells/mL) in the presence of various concentrations of d4T phosphoramidates and aliquots of culture supernatants were removed from the wells on the 7th day after infection for p24 antigen assays, as previously described (Uckun et al., 1998, Antimicrobial Agents and Chem., 42(2):383-388). The applied p24 enzyme immunoassay (EIA) was the unmodified kinetic assay commercially available from Coulter Corporation/Immunotech, Inc. (Westbrooke, Me.), which utilizes a murine mAb to HIV core protein coated onto microwell strips to which the antigen present in the test culture supernatant samples binds. Percent viral inhibition was calculated by comparing the p24 values from untreated infected cells (i.e., virus controls).
The anti-HIV activity of the compounds was examined by evaluating their ability to inhibit HIV replication in peripheral blood mononuclear cells using previously described procedures (Uckun et al., 1998, Antimicrobial Agents and Chem., 42(2):383-388). Percent inhibition of viral replication was calculated by comparing the p24 antigen levels from the test substance-treated infected cells with those from vehicle-treated infected cells.
Antiviral susceptibility assays. Phenotypic drug susceptibility studies of HIV-1 isolates and strains were performed by measuring the production of the p24 gag protein in peripheral blood mononuclear cells (PBMC) from seronegative healthy volunteers in the presence of increasing concentrations of the anti-HIV agent using the quantitative Coulter HIV-1 p24 antigen ezyme immunoassay (EIA) and HIV-1 p24 Antigen Kinetic Standard (Beckman Coulter), as previously described (Uckun, 1998, Antimicrobial Agents and Chemotherapy 37(4): 835-38). Informed consent was obtained from the blood donors according to DHHS guidelines using consent forms approved by the Institutional Review Board. In brief, PBMC were cultured for 72 h in RPMI 1640 medium (Gibco) supplemented with 20% (vol/vol) heat-inactivated fetal bovine serum, 5% human interleukin-2 (Zeptometrix), 2 mM L-glutamine, 25 mM HEPES, 2 g/L NaHCO3, 100 U/ml penicillin/streptomycin (Gibco), 50 μg/ml gentamicin (Gibco), and 5 μg/ml phytohemagglutinin-P (PHA-P) (Sigma) for 24-72 hours prior to exposure to HIV at a multiplicity of infection of 0.001-0.1 during a 1-h adsorbtion period at 37±1° C. in a humidified 5-7% CO2 atmosphere. Subsequently, cells were cultured in 96-well microtiter plates (100 μl/well; 2×10^6 cells/ml, triplicate wells) in the presence of the anti-HIV agents at 6-7 different concentrations ranging from 0.0001 μM to 100 μM, and 25 μL aliquots of culture supernatants were removed from the wells on day 6 after infection for p24 EIA, as previously described (Uckun, 1998, Antimicrobial Agents and Chemotherapy, 37(4):835-38). Controls included uninfected and untreated cells (background control) and infected but untreated (virus control) cells. The p24 EIA utilizes a murine monoclonal antibody to HIV core protein used to coat microwell strips to which the antigen present in the test culture supernatant samples binds. Percent inhibition of viral replication was calculated by comparing the p24 values from the test substance-treated infected cells with p24 values from untreated infected cells (i.e., virus controls). The IC50 values were determined using the Statview statistics program (SAS Institute, Inc.).

[6] = unit not given in Table 5 (0.04 = 40 nM)
[7] = Human immunodeficiency virus 1, read-out: IC50 (nM), p24, recombinant clone 1617-1 (151 complex)
[8] = Human immunodeficiency virus 1, read-out: IC50 (nM), p24, recombinant clone 4755-5
[9] = Human immunodeficiency virus 1, read-out: IC50 (nM), p24, recombinant clone 7295-1
[10] = Human immunodeficiency virus 1, read-out: IC50 (nM), p24, recombinant clone 7324-1
[11] = Human immunodeficiency virus 1, read-out: IC50 (nM), p24, recombinant clone 52252-1 in Table 18, 56252-1 in Tables 19 and 20 (K65R, 151 complex)
[12] = Human immunodeficiency virus 1, read-out: IC50 (nM), p24, recombinant clone printed 52534-1 in Table 18, 52534-2 in Tables 19 and 20 (69 insertion complex)
[13] = Human immunodeficiency virus 1, read-out: IC50 (nM), RT, recombinant clone 1617-1
[14] = Human immunodeficiency virus 1, read-out: IC50 (nM), RT, recombinant clone 4755-5
[15] = Human immunodeficiency virus 1, read-out: IC50 (nM), RT, recombinant clone 7295-1
[16] = Human immunodeficiency virus 1, read-out: IC50 (nM), RT, recombinant clone 7324-1
[17] = Human immunodeficiency virus 1, read-out: IC50 (nM), RT, recombinant clone 52534-2
[18] = Human immunodeficiency virus 1, read-out: IC50 (nM), RT, recombinant clone 56252-1
[19] = Human immunodeficiency virus 1, read-out: mean IC50, RT, mean over 6 multi-NRTI-resistant clones

Work on “3dT-5′-(para-bromophenyl methoxyalaninyl phosphate) [Compound 2d]” yielded an IC50 (HIV-1 (strain: HTLVIIIB); Table 4) of 1200 nM, an IC50 (HIV-1 (strain: HTLVIIIB); [6]) of 1200 nM and an IC50 ([1]; Table 4) of 22800 nM. The IC50 ([1]; Table 5) was 22800 nM.

COC(=O)C(C)NP(=O)(OCC1CCC(n2cc(C)c(=O)[nH]c2=O)O1)Oc1ccc(F)cc1 (mixture of isomers) [Compound 2c] showed an IC50 (HIV-1 (strain: HTLVIIIB); Table 4) of 3100 nM and an IC50 ([1]; Table 4) of 32700 nM.

For COC(=O)C(C)NP(=O)(OCC1CCC(n2cc(C)c(=O)[nH]c2=O)O1)Oc1ccc([N+](=O)[O-])cc1 (mixture of isomers) [Compound 2e], the IC50 (HIV-1 (strain: HTLVIIIB); Table 4) was 2000 nM and the IC50 ([1]; Table 4) was 22600 nM.

COC(=O)[C@H](C)NP(=O)(OC[C@@H]1CC[C@H](n2cc(C)c(=O)[nH]c2=O)O1)Oc1ccccc1 (stereo partly drawn) [Compound 2a] showed an IC50 (HIV-1 (strain: HTLVIIIB); Table 4) of 2100 nM, an IC50 (HIV-1 (strain: HTLVIIIB); [6]) of 2100 nM and an IC50 ([1]; Table 4) of 7500 nM. The IC50 ([1]; Table 5) was 7500 nM.

In the case of Cc1cn([C@H]2CC[C@@H](CO)O2)c(=O)[nH]c1=O [Compound 3dT, 3′-deoxythymidine], the IC50 (HIV-1 (strain: HTLVIIIB); Human immunodeficiency virus 1, Table 4) is reported as 700 nM, the IC50 ([1]; Human immunodeficiency virus 1, T-cell, Table 4) is reported as 91200 nM and the IC50 ([1]; Human immunodeficiency virus 1, T-cell, Table 5) is reported as 91200 nM.

In the case of COC(=O)C(C)NP(=O)(OCC1OC(n2cc(C)c(=O)[nH]c2=O)CC1N=[N+]=[N-])Oc1ccccc1 (stereo not drawn) [Compound 5a], the IC50 ([1]; Table 5) is reported as 1700 nM.

COC(=O)C(C)NP(=O)(OCC1OC(n2cc(C)c(=O)[nH]c2=O)CC1N=[N+]=[N-])Oc1ccc(OC)cc1 (stereo not drawn) [Compound 5b] gave an IC50 (HIV-1 (strain: HTLVIIIB); [6]) of 100 nM and an IC50 ([1]; Table 5) of 4100 nM.

In the case of Nc1nc(NC2CC2)c2ncn([C@H]3C=C[C@@H](CO)C3)c2n1 [abacavir], the “mean reduction in susceptibility” value [2] is listed as 40 fold, the “median reduction in susceptibility” value [2] is listed as 14.9 fold and the Fold decreased susceptibility ([3]; recombinant clone 1617-1) is listed as greater than 100 fold. The Fold decreased susceptibility ([3]; recombinant clone 4755-5) was 7.7 fold, the Fold decreased susceptibility ([3]; recombinant clone 7295-1) was 6.1 fold and the Fold decreased susceptibility ([3]; recombinant clone 7324-1) was 4.2 fold. For the same compound, the Fold decreased susceptibility ([3]; recombinant clone 52534-2) was 22 fold and the Fold decreased susceptibility ([3]; recombinant clone 56252-1) was greater than 100 fold.

In the case of O=c1[nH]cnc2c1ncn2[C@H]1CC[C@@H](CO)O1 [didanosine], the “mean reduction in susceptibility” value [2] is listed as 10.1 fold, the “median reduction in susceptibility” value [2] is listed as 2.9 fold and the Fold decreased susceptibility ([3]; recombinant clone 1617-1) is listed as 23 fold. The Fold decreased susceptibility ([3]; recombinant clone 4755-5) was 2.4 fold, the Fold decreased susceptibility ([3]; recombinant clone 7295-1) was 1.9 fold and the Fold decreased susceptibility ([3]; recombinant clone 7324-1) was 1.7 fold. The Fold decreased susceptibility ([3]; recombinant clone 52534-2) was 3.3 fold and the Fold decreased susceptibility ([3]; recombinant clone 56252-1) was 28 fold.

With CC(C)(C)NC(=O)[C@@H]1CN(Cc2cccnc2)CCN1C[C@@H](O)C[C@@H](Cc1ccccc1)C(=O)N[C@H]1c2ccccc2C[C@H]1O [indinavir] the IC50 [4, 7] was 20.5 nM, the IC50 [4, 8] was 9.4 nM and the IC50 [4, 9] was 17.2 nM. For the same compound, the IC50 [4, 10] was 21.8 nM, the IC50 [4, 11] was 9 nM and the IC50 [4, 12] was 36.5 nM. The IC50 [5, 13] was 5.2 nM, the IC50 [5, 14] was 4.8 nM and the IC50 [5, 15] was 1.4 nM. For the same compound, the IC50 [5, 16] was 5.7 nM, the IC50 [5, 17] was 12.2 nM and the IC50 [5, 18] was 3.7 nM. For the same compound, the IC50 [5, 19] was 5.5 ± 1.5 nM.

For Nc1ccn([C@@H]2CS[C@H](CO)O2)c(=O)n1 [lamivudine], the IC50 [4, 7] was greater than 10000 nM, the IC50 [4, 8] was greater than 10000 nM and the IC50 [4, 9] was greater than 10000 nM. For the same compound, the IC50 [4, 10] was 800 nM, the IC50 [4, 11] was greater than 10000 nM and the IC50 [4, 12] was greater than 10000 nM. The IC50 [5, 13] was greater than 10000 nM, the IC50 [5, 14] was greater than 10000 nM and the IC50 [5, 15] was greater than 10000 nM. For the same compound, the IC50 [5, 16] was 634 nM, the IC50 [5, 17] was greater than 10000 nM and the IC50 [5, 18] was 7210 nM. For the same compound, the IC50 [5, 19] was 7970 ± 1540 nM, the “mean reduction in susceptibility” value [2] was 215.5 fold and the “median reduction in susceptibility” value [2] was 300 fold. It also gave an IC50 (HIV-1 HTLVIIIB) of 40 ± 25 nM and an IC90 (HIV-1 HTLVIIIB) of 1820 ± 747 nM.

For C[C@H](Cn1cnc2c(N)ncnc21)OCP(=O)(O)O [tenofovir], the “mean reduction in susceptibility” value [2] is given as 4.9 fold, the “median reduction in susceptibility” value [2] is given as 3.3 fold and the Fold decreased susceptibility ([3]; recombinant clone 1617-1) is given as 2.4 fold. For the same compound, the Fold decreased susceptibility ([3]; recombinant clone 4755-5) was 2.3 fold, the Fold decreased susceptibility ([3]; recombinant clone 7295-1) was 1.1 fold and the Fold decreased susceptibility ([3]; recombinant clone 7324-1) was 8.1 fold. The Fold decreased susceptibility ([3]; recombinant clone 52534-2) was 4.2 fold and the Fold decreased susceptibility ([3]; recombinant clone 56252-1) was 11 fold.
